Assay results published in patent US11045486B2, “Therapeutic method and therapeutic agent for atopic dermatitis in animals” (priority 2015, dated 2021).
Entries after “also recorded” stand apart in the source; their conditions may differ.

Tests used:
canine atopic dermatitis [1] = settings: 7 out of 37 dogs with canine atopic dermatitis; cited from earlier work
canine atopic dermatitis [2] = assay: CADLI index (skin lesion score) in dogs with atopic dermatitis before and after drug administration; assay type: in vivo, dog; settings: for effect of improving clinical symptoms of canine atopic dermatitis: 127 dogs, single agents 30 days each, combination up to 60 days, compared with before administration; for CADLI score, average value and standard error / CADLI score, average value (standard error): 30-days administration; for CADLI score, average value (standard error): all 127 dogs, oral with meals every 12 hours (RXM 5 mg/kg, PTX 25 mg/kg), prior to administration 33.17
From the text: The CADLI index used in the present specification is an index representing the skin condition of atopic dermatitis, and the skin condition of the five parts of the body is scored by estimating erythema, scratch, erosion, alopecia, lichenification, hyperpigmentation (Non-Patent Document 14). Therefore, the highest point is 50 points, and closer to 50 points the skin inflammation is becoming more severe. […] This figure decreased to 12.04±1.11 after 30 days of dosing and 6.51±1.51 after 60 days, and it was remarkable for all 127 cases (100%). To be able to obtain remission of symptoms with high probability. […] Target animals: For five years from 2010 to 2015, at Gotofu Animal Hospital (1-1-3, […], Fukuoka City, Fukuoka Prefecture), among dogs diagnosed as atopic dermatitis of dogs by diagnostic criteria announced by Dr. Favrot in 2010 (non patent literature 15), the examinations were conducted for 127 dogs for which the consent and cooperation of treatment were obtained from the family and whose sum of SQK were larger than the sum of SLK of the 5 parts, whose SLK and SQK value were calculated for 5 parts of the neck, the fossa, the back, the forearm, and the lower leg. As content of implementation items, in all 127 cases, roxithromycin was administered as a single agent for 30 days, and pentoxifylline was administered as a single agent for the next 30 days. During the last 60 days, roxithromycin and pentoxifylline were administered in combination. The constituent of the targeted dog type is as shown in (Table 1). The constituent of the gender was 57 males (35 castrated with 35 male), 70 females (35 contraceptives already) (Table 1). Methods: In all 127 cases, 5 mg/kg of roxithromycin alone was orally administered with meals every 12 hours for the first 30 days. For the next 30 days, pentoxifylline alone was orally administered at 25 mg/kg with meals every 12 hours. For the next 60 days, 5 mg/kg of roxithromycin and 25 mg/kg of pentoxifylline were orally administered simultaneously with meals every 12 hours. After that, administration of roxithromycin and pentoxifylline was discontinued and a follow-up study was conducted for 30 days. For all treatment periods, meals were allowed to feed freely without restriction. Also, shampoo was carried out at home once a week. Local corticosteroid therapy was performed at any time as long as there was a strong itching lesion After measurement, roxithromycin (RXM) was administered as a single agent for 30 days. After administration, CADLI index was measured to ascertain the skin condition, and it was judged whether roxithromycin has the ability to improve atopic dermatitis by comparing the change of numerical values before and after medication. Similarly, for pentoxifylline (PTX), it was estimated whether pentoxifylline has the effect of improving canine atopic dermatitis by measuring the CADLI index as an index and comparing the values before and after administration. Finally, for administration of roxithromycin and pentoxifylline in combination, the CADLI index was measured on the 30th and 60th days of administration, respectively, and the effect of the drug was evaluated by comparing the values.

[3] = breed West Highland white terrier

## CC(=O)CCCCn1c(=O)c2c(ncn2C)n(C)c1=O [PTX, Pentoxifylline]
Canine atopic dermatitis [1]
  patients in which single administration of pentoxifylline was effective: 19%
Canine atopic dermatitis [2]
  effect of improving clinical symptoms of canine atopic dermatitis: no therapeutic effect to improve atopic dermatitis in dogs; also recorded: unable to confirm the effect of improving the symptoms of atopic dermatitis in dogs
  CADLI score, average value (standard error): 33.09
Canine atopic dermatitis [2]; age 4 years-6 years of age
  CADLI score, average value and standard error: 32.38 ± 3.01
Canine atopic dermatitis [2]; age 7 years-9 years of age
  CADLI score, average value and standard error: 32.95 ± 3.47
Canine atopic dermatitis [2]; age 10 years-12 years of age
  CADLI score, average value and standard error: 34.61 ± 2.84
Canine atopic dermatitis [2]; age Over 13 years of age
  CADLI score, average value and standard error: 31.68 ± 3.93
Canine atopic dermatitis [2]; age Under 3 years of age
  CADLI score, average value and standard error: 33.94 ± 4.74
Canine atopic dermatitis [2]; listed as pentoxifylline
  CADLI score, average value (standard error): 33.09±1.52
Canine atopic dermatitis [2]; breed Chihuahua
  CADLI score, average value and standard error: 31.00 ± 9.01
Canine atopic dermatitis [2]; breed Miniature dachschund
  CADLI score, average value and standard error: 28.64 ± 4.11
Canine atopic dermatitis [2]; breed Mongrel
  CADLI score, average value and standard error: 36.00 ± 6.08
Canine atopic dermatitis [2]; breed Others
  CADLI score, average value and standard error: 35.26 ± 3.66
Canine atopic dermatitis [2]; breed Pug
  CADLI score, average value and standard error: 35.60 ± 3.48
Canine atopic dermatitis [2]; breed Shiba
  CADLI score, average value and standard error: 34.93 ± 4.45
Canine atopic dermatitis [2]; breed Shih Tzu
  CADLI score, average value and standard error: 32.94 ± 3.09
Canine atopic dermatitis [2]; breed Toy Poodle
  CADLI score, average value and standard error: 36.86 ± 5.42
Canine atopic dermatitis [2]; breed Welsh Corgi
  CADLI score, average value and standard error: 31.50 ± 6.11
Canine atopic dermatitis [2]; [3]
  CADLI score, average value and standard error: 34.40 ± 7.91
Canine atopic dermatitis [2]; breed Yorkshire Terrier
  CADLI score, average value and standard error: 22.29 ± 7.94
Canine atopic dermatitis [2]; sex Castrated male
  CADLI score, average value and standard error: 32.63 ± 2.87
Canine atopic dermatitis [2]; sex Female
  CADLI score, average value and standard error: 32.43 ± 3.13
Canine atopic dermatitis [2]; sex Male
  CADLI score, average value and standard error: 35.41 ± 3.40
Canine atopic dermatitis [2]; sex Spayed female
  CADLI score, average value and standard error: 32.74 ± 2.98

## CC[C@H]1OC(=O)[C@H](C)[C@@H](O[C@H]2C[C@@](C)(OC)[C@@H](O)[C@H](C)O2)[C@H](C)[C@@H](O[C@@H]2O[C@H](C)C[C@H](N(C)C)[C@H]2O)[C@](C)(O)C[C@@H](C)/C(=N\OCOCCOC)[C@H](C)[C@@H](O)[C@]1(C)O [RXM, Roxithromycin]
Canine atopic dermatitis [2]
  effect of improving clinical symptoms of canine atopic dermatitis: did not seem to have sufficient therapeutic effect to improve atopic dermatitis in dogs; also recorded: no effect of improving canine atopic dermatitis
  CADLI score, average value (standard error): 33.64
Canine atopic dermatitis [2]; age 4 years-6 years of age
  CADLI score, average value and standard error: 32.75 ± 2.82
Canine atopic dermatitis [2]; age 7 years-9 years of age
  CADLI score, average value and standard error: 33.55 ± 3.54
Canine atopic dermatitis [2]; age 10 years-12 years of age
  CADLI score, average value and standard error: 35.18 ± 2.89
Canine atopic dermatitis [2]; age Over 13 years of age
  CADLI score, average value and standard error: 32.32 ± 4.07
Canine atopic dermatitis [2]; age Under 3 years of age
  CADLI score, average value and standard error: 34.72 ± 4.91
Canine atopic dermatitis [2]; listed as roxithromycin
  CADLI score, average value (standard error): 33.64±1.51
Canine atopic dermatitis [2]; breed Chihuahua
  CADLI score, average value and standard error: 31.67 ± 9.18
Canine atopic dermatitis [2]; breed Miniature dachschund
  CADLI score, average value and standard error: 29.00 ± 4.24
Canine atopic dermatitis [2]; breed Mongrel
  CADLI score, average value and standard error: 36.57 ± 6.25
Canine atopic dermatitis [2]; breed Others
  CADLI score, average value and standard error: 36.16 ± 3.50
Canine atopic dermatitis [2]; breed Pug
  CADLI score, average value and standard error: 35.30 ± 3.63
Canine atopic dermatitis [2]; breed Shiba
  CADLI score, average value and standard error: 35.60 ± 4.44
Canine atopic dermatitis [2]; breed Shih Tzu
  CADLI score, average value and standard error: 33.39 ± 2.88
Canine atopic dermatitis [2]; breed Toy Poodle
  CADLI score, average value and standard error: 37.57 ± 5.51
Canine atopic dermatitis [2]; breed Welsh Corgi
  CADLI score, average value and standard error: 31.50 ± 6.98
Canine atopic dermatitis [2]; [3]
  CADLI score, average value and standard error: 35.00 ± 8.08
Canine atopic dermatitis [2]; breed Yorkshire Terrier
  CADLI score, average value and standard error: 23.00 ± 8.56
Canine atopic dermatitis [2]; sex Castrated male
  CADLI score, average value and standard error: 33.23 ± 2.97
Canine atopic dermatitis [2]; sex Female
  CADLI score, average value and standard error: 32.71 ± 2.96
Canine atopic dermatitis [2]; sex Male
  CADLI score, average value and standard error: 36.41 ± 3.28
Canine atopic dermatitis [2]; sex Spayed female
  CADLI score, average value and standard error: 33.23 ± 3.01
